Data from the NIST ThermoML archive (doi:10.1016/j.jct.2014.01.020).
± gives the expanded uncertainty stated by the source.

Assay: xn = mol fraction of the nth substance listed
Conditions: Liquid; for mass density: Vibrating tube method; for viscosity: 101 kPa, Concentric cylinders viscometry

C1CCCCC1 [cyclohexane] + CCCCO
mass density [kg/m3]
Conditions | x2 = 0.1 | x2 = 0.2 | x2 = 0.3003 | x2 = 0.4005 | x2 = 0.4997 | x2 = 0.6001 | x2 = 0.6999 | x2 = 0.7998 | x2 = 0.8999
313.15 K, 60000 kPa | – | – | – | – | – | – | – | – | 828.3 ± 0.8
323.15 K, 100 kPa | 750.6 ± 0.7 | 752.8 ± 0.7 | 755.6 ± 0.7 | 758.9 ± 0.7 | 762.6 ± 0.7 | 766.6 ± 0.7 | 771.1 ± 0.7 | 775.7 ± 0.7 | 780.7 ± 0.7
323.15 K, 1000 kPa | 751.6 ± 0.7 | 753.8 ± 0.7 | 756.6 ± 0.7 | 759.9 ± 0.7 | 763.5 ± 0.7 | 767.5 ± 0.7 | 771.9 ± 0.7 | 776.6 ± 0.7 | 781.6 ± 0.7
323.15 K, 2000 kPa | 752.6 ± 0.7 | 754.8 ± 0.7 | 757.6 ± 0.7 | 760.8 ± 0.7 | 764.5 ± 0.7 | 768.5 ± 0.7 | 772.9 ± 0.7 | 777.5 ± 0.7 | 782.5 ± 0.7
323.15 K, 5000 kPa | 755.6 ± 0.7 | 757.8 ± 0.7 | 760.5 ± 0.7 | 763.7 ± 0.7 | 767.3 ± 0.7 | 771.3 ± 0.7 | 775.6 ± 0.7 | 780.1 ± 0.7 | 785.1 ± 0.7
323.15 K, 10000 kPa | 760.3 ± 0.7 | 762.5 ± 0.7 | 765.2 ± 0.7 | 768.3 ± 0.7 | 771.8 ± 0.7 | 775.7 ± 0.7 | 779.9 ± 0.7 | 784.4 ± 0.7 | 789.2 ± 0.7
323.15 K, 15000 kPa | 764.8 ± 0.7 | 766.9 ± 0.7 | 769.6 ± 0.7 | 772.7 ± 0.7 | 776.1 ± 0.7 | 779.9 ± 0.7 | 783.9 ± 0.7 | 788.3 ± 0.7 | 793.1 ± 0.7
323.15 K, 20000 kPa | 769 ± 0.8 | 771.1 ± 0.8 | 773.7 ± 0.8 | 776.7 ± 0.8 | 780.1 ± 0.8 | 783.8 ± 0.8 | 787.9 ± 0.8 | 792.2 ± 0.7 | 796.8 ± 0.7
323.15 K, 30000 kPa | 776.9 ± 0.8 | 779 ± 0.8 | 781.6 ± 0.8 | 784.4 ± 0.8 | 787.7 ± 0.8 | 791.2 ± 0.8 | 795.2 ± 0.8 | 799.3 ± 0.8 | 803.9 ± 0.8
323.15 K, 40000 kPa | 784.2 ± 0.8 | 786.1 ± 0.8 | 788.6 ± 0.8 | 791.4 ± 0.8 | 794.6 ± 0.8 | 798.1 ± 0.8 | 801.8 ± 0.8 | 805.9 ± 0.8 | 810.3 ± 0.8
323.15 K, 50000 kPa | 790.8 ± 0.9 | 792.8 ± 0.8 | 795.1 ± 0.8 | 797.9 ± 0.8 | 801 ± 0.8 | 804.4 ± 0.8 | 808 ± 0.8 | 812 ± 0.8 | 816.3 ± 0.8
323.15 K, 60000 kPa | 797.2 ± 0.9 | 799 ± 0.9 | 801.4 ± 0.9 | 804.1 ± 0.9 | 807 ± 0.9 | 810.5 ± 0.9 | 814 ± 0.9 | 817.9 ± 0.9 | 822.1 ± 0.9
323.15 K, 70000 kPa | 802.9 ± 0.9 | 804.6 ± 0.9 | 806.9 ± 0.9 | 809.6 ± 0.9 | 812.6 ± 0.9 | 815.8 ± 0.9 | 819.3 ± 0.9 | 823.2 ± 0.9 | 827.3 ± 0.9
323.15 K, 80000 kPa | 808.6 ± 1 | 810.1 ± 1 | 812.3 ± 0.9 | 815 ± 0.9 | 817.9 ± 0.9 | 821.1 ± 0.9 | 824.5 ± 0.9 | 828.3 ± 0.9 | 832.3 ± 0.9
333.15 K, 100 kPa | 740.7 ± 0.7 | 743 ± 0.7 | 745.9 ± 0.7 | 749.4 ± 0.7 | 753.1 ± 0.7 | 757.4 ± 0.7 | 762.1 ± 0.7 | 767 ± 0.7 | 772.4 ± 0.7
333.15 K, 1000 kPa | 741.7 ± 0.7 | 744 ± 0.7 | 746.9 ± 0.7 | 750.3 ± 0.7 | 754.1 ± 0.7 | 758.4 ± 0.7 | 763 ± 0.7 | 767.9 ± 0.7 | 773.3 ± 0.7
333.15 K, 2000 kPa | 742.8 ± 0.7 | 745.1 ± 0.7 | 748 ± 0.7 | 751.4 ± 0.7 | 755.2 ± 0.7 | 759.4 ± 0.7 | 764 ± 0.7 | 768.9 ± 0.7 | 774.2 ± 0.7
333.15 K, 5000 kPa | 746.1 ± 0.7 | 748.3 ± 0.7 | 751.1 ± 0.7 | 754.5 ± 0.7 | 758.2 ± 0.7 | 762.4 ± 0.7 | 766.9 ± 0.7 | 771.8 ± 0.7 | 777 ± 0.7
333.15 K, 10000 kPa | 751.1 ± 0.7 | 753.3 ± 0.7 | 756.1 ± 0.7 | 759.4 ± 0.7 | 763 ± 0.7 | 767.1 ± 0.7 | 771.5 ± 0.7 | 776.2 ± 0.7 | 781.3 ± 0.7
333.15 K, 15000 kPa | 755.9 ± 0.7 | 758 ± 0.7 | 760.8 ± 0.7 | 764 ± 0.7 | 767.5 ± 0.7 | 771.5 ± 0.7 | 775.8 ± 0.7 | 780.4 ± 0.7 | 785.4 ± 0.7
333.15 K, 20000 kPa | 760.5 ± 0.8 | 762.5 ± 0.8 | 765.2 ± 0.8 | 768.4 ± 0.8 | 771.8 ± 0.8 | 775.7 ± 0.8 | 780 ± 0.8 | 784.5 ± 0.8 | 789.4 ± 0.7
333.15 K, 30000 kPa | 768.9 ± 0.8 | 770.8 ± 0.8 | 773.4 ± 0.8 | 776.4 ± 0.8 | 779.8 ± 0.8 | 783.6 ± 0.8 | 787.6 ± 0.8 | 792 ± 0.8 | 796.7 ± 0.8
333.15 K, 40000 kPa | 776.5 ± 0.8 | 778.3 ± 0.8 | 780.8 ± 0.8 | 783.8 ± 0.8 | 787 ± 0.8 | 790.7 ± 0.8 | 794.6 ± 0.8 | 798.8 ± 0.8 | 803.4 ± 0.8
333.15 K, 50000 kPa | 783.5 ± 0.9 | 785.2 ± 0.9 | 787.7 ± 0.9 | 790.6 ± 0.9 | 793.7 ± 0.8 | 797.2 ± 0.8 | 801.1 ± 0.8 | 805.2 ± 0.8 | 809.7 ± 0.8
333.15 K, 60000 kPa | 790 ± 0.9 | 791.7 ± 0.9 | 794.1 ± 0.9 | 797 ± 0.9 | 800.1 ± 0.9 | 803.4 ± 0.9 | 807.1 ± 0.9 | 811.2 ± 0.9 | 815.6 ± 0.9
333.15 K, 70000 kPa | 796.1 ± 0.9 | 797.7 ± 0.9 | 800 ± 0.9 | 802.9 ± 0.9 | 805.8 ± 0.9 | 809.2 ± 0.9 | 812.9 ± 0.9 | 816.8 ± 0.9 | 821.2 ± 0.9
333.15 K, 80000 kPa | 801.9 ± 1 | 803.3 ± 1 | 805.7 ± 1 | 808.4 ± 1 | 811.3 ± 0.9 | 814.6 ± 0.9 | 818.3 ± 0.9 | 822.1 ± 0.9 | 826.3 ± 0.9
333.15 K, 90000 kPa | 807.3 ± 1 | 808.7 ± 1 | 810.9 ± 1 | 813.7 ± 1 | 816.5 ± 1 | 819.8 ± 1 | 823.3 ± 1 | 827.2 ± 1 | 831.3 ± 0.9
333.15 K, 100000 kPa | 812.4 ± 1 | 813.8 ± 1 | 816 ± 1 | 818.7 ± 1 | 821.5 ± 1 | 824.7 ± 1 | 828.1 ± 1 | 831.9 ± 1 | 836 ± 1

viscosity [mPa·s]
Conditions | x2 = 0 | x2 = 0.1073 | x2 = 0.1991 | x2 = 0.2998 | x2 = 0.4006 | x2 = 0.4997 | x2 = 0.6001 | x2 = 0.7001 | x2 = 0.7997 | x2 = 0.8996
323.15 K | 0.593 ± 0.013 | 0.596 ± 0.013 | 0.613 ± 0.013 | 0.659 ± 0.014 | 0.704 ± 0.015 | 0.776 ± 0.017 | 0.868 ± 0.018 | 0.99 ± 0.021 | 1.106 ± 0.023 | 1.255 ± 0.026
333.15 K | 0.522 ± 0.012 | 0.522 ± 0.012 | 0.535 ± 0.012 | 0.565 ± 0.012 | 0.605 ± 0.013 | 0.657 ± 0.014 | 0.723 ± 0.016 | 0.8 ± 0.017 | 0.889 ± 0.019 | 1.011 ± 0.021
